How the values were obtained:
BCL6^BTB [1] = target: T1, BCL6^BTB (Homo sapiens, UniProt P41182, C67R/C84N/E99V)
Ly1B50 = assay: Growth inhibition; format: cell-based; details: Homo sapiens, 48 h, read-out: GI50 BCL6 independent cell Ly1B50
[2] = tested on: BCL6-dependent and BCL6-independent lymphoma cells; assay: Differential cell killing assays, panel statements; format: cell-based, human
BCL6^BTB LG = details: read-out: KD (MST); microscale thermophoresis; cited from earlier work
BCL6^BTB [3] = target: T1, BCL6^BTB; details: NMR KD
LRF = LRF (Homo sapiens, UniProt O95365); details: Figure S8
Chain of LRF (O95365 1-130): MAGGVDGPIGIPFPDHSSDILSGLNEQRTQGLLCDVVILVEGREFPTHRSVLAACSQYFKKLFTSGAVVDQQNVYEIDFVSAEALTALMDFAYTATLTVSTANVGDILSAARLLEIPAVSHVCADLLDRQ

MIZ1 = target: T2, MIZ1 (Homo sapiens, UniProt Q13105); assay: Protein-observed NMR binding to MIZ1 BTB; details: Figure S8
T2 sequence (Q13105 1-115): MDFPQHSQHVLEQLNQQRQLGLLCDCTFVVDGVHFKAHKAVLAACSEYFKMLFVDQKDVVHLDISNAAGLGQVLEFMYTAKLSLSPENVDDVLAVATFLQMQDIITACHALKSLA

OCI-Ly7 = assay: Growth inhibition; format: cell-based, human
KAISO = KAISO (Homo sapiens, UniProt Q86T24); details: Figure S8
Chain of KAISO (Q86T24 1-122, species assumed): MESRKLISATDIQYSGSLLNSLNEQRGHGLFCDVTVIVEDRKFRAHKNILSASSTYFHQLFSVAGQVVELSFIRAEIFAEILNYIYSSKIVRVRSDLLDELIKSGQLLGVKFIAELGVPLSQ

SUDHL6 = assay: Growth inhibition; format: cell-based, human

## CCN(CC)C(=O)Cn1cc(CN2CCN(C)CC2)c2ccc(NC(=S)NCCc3c[nH]c4ccccc34)cc21 [Compound 15d, 2-(6-(3-(2-(1H-Indol-3-yl)ethyl)thioureido)-3-((4-methylpiperazin-1-yl)methyl)-1H-indol-1-yl)-N,N-diethylacetamide]
BCL6^BTB [1]
  6PA: 390 Hz

## CN1CCN(Cc2cn(CC(=O)NCC(=O)O)c3cc(NC(=S)NCCc4c[nH]c5ccccc45)ccc23)CC1 [Compound 15c, (2-(6-(3-(2-(1H-Indol-3-yl)ethyl)thioureido)-3-((4-methylpiperazin-1-yl)methyl)-1H-indol-1-yl)acetyl)glycine]
Ly1B50
  GI50: > 500 µM
[2]
  effects in the cell killing assays: no effects

## O=C(O)CC(C(=O)O)N1C(=O)/C(=C2/C(=O)Nc3ccc(Br)cc32)SC1=S (stereo not drawn) [79–6]
BCL6^BTB LG
  Kd: 129 µM

## CN1CCN(Cc2cn(CC(=O)N3CCOCC3)c3cc(NC(=S)NCCc4c[nH]c5ccccc45)ccc23)CC1 [Compound 15f, 1-(2-(1H-Indol-3-yl)ethyl)-3-(3-((4-methylpiperazin-1-yl)methyl)-1-(2-morpholino-2-oxoethyl)-1H-indol-6-yl)thiourea]
BCL6^BTB [3]
  improvement of affinity over 15a: 6 fold
LRF
  binding to LRF BTB domain: no interactions
Ly1B50
  GI50: > 500 µM
MIZ1
  binding to MIZ1 BTB domain: no interactions
OCI-Ly7
  cellular activity, OCI-Ly7 cells: weak potency
[2]; other than OCI-Ly7
  activity to other tested BCL6-dependent lymphoma cells: no obvious activity
KAISO
  binding to KAISO BTB domain: no interactions

## COC(=O)Cn1cc(CN2CCN(C)CC2)c2ccc(NC(=S)NCCc3c[nH]c4ccccc34)cc21 [Compound 13, Methyl 2-(6-(3-(2-(1H-indol-3-yl)ethyl)thioureido)-3-((4-methylpiperazin-1-yl)methyl)-1H-indol-1-yl)acetate]
BCL6^BTB [1]
  6PA: 363 Hz
SUDHL6
  cellular activity, SUDHL6 cells: weak cellular activity
Ly1B50
  GI50: > 500 µM

## CC1CN(C(=O)Cn2cc(CN3CCN(C)CC3)c3ccc(NC(=S)NCCc4c[nH]c5ccccc45)cc32)CCO1 (stereo not drawn) [Compound 15g, 1-(2-(1H-Indol-3-yl)ethyl)-3-(1-(2-(2-methylmorpholino)-2-oxoethyl)-3-((4-methylpiperazin-1-yl)methyl)-1H-indol-6-yl)thiourea]
Ly1B50
  GI50: > 500 µM
OCI-Ly7
  cellular activity, OCI-Ly7 cells: only showed activity

## CN1CCN(Cc2cn(CC(=O)N3CCCCC3)c3cc(NC(=S)NCCc4c[nH]c5ccccc45)ccc23)CC1 [Compound 15e, 1-(2-(1H-Indol-3-yl)ethyl)-3-(3-((4-methylpiperazin-1-yl)methyl)-1-(2-oxo-2-(piperidin-1-yl)ethyl)-1H-indol-6-yl)thiourea]
Ly1B50
  GI50: > 500 µM
[2]; Homo sapiens, read-out: GI50 for BCL6-dependent lymphoma cells
  GI50: 33 to 103 µM
[2]; at the concentration of 500 μM
  effect on all tested BCL6-independent lymphoma cells: no effect

## CC(C)NC(=O)Cn1ccc2ccc(NC(=S)NCCc3c[nH]c4ccccc34)cc21 [Compound 7b, 2-(6-(3-(2-(1H-Indol-3-yl)ethyl)thioureido)-1H-indol-1-yl)-N-isopropylacetamide]
BCL6^BTB [1]
  improvement of 6PA value compared to compound 7a: 3.7 fold

## CC(C)NC(=O)Cn1cc(CN2CCN(C)CC2)c2ccc(NC(=S)NCCc3c[nH]c4ccccc34)cc21 [Compound 15a, 2-(6-(3-(2-(1H-indol-3-yl)ethyl)thioureido)-3-((4-methylpiperazin-1-yl)methyl)-1H-indol-1-yl)-N-isopropylacetamide]
Ly1B50
  GI50: > 500 µM
[2]
  effects in the cell killing assays: no effects

## O=C(O)CNC(=O)Cn1ccc2ccc(NC(=S)NCCc3c[nH]c4ccccc34)cc21 [Compound 7i, (2-(6-(3-(2-(1H-Indol-3-yl)ethyl)thioureido)-1H-indol-1-yl)acetyl)glycine]
Ly1B50
  GI50: > 500 µM
[2]; at the concentration of 500 μM
  effect on all seven lymphoma cell lines: no effect
